Laboratory results: patent US7169955B2, “Perfluoroisopropylbenzene derivative” (Nihon Nohyaku Co., Ltd., priority 2000, dated 2007)

Tests used:
Type in all cases: in vivo
[1] = tested on: monochoria (Monochoria veginalis); experiment: Herbicidal effect on upland weeds after emergence; settings: after emergence (1 to 2 leaved stage) spray, 5 kg/ha, 14 days after treatment
Source text: (§1) Polyethylene-made vats having a size of 10 cm (length)×20 cm (width)×5 cm (height) were filled with soil, sown with the seeds of the upland weeds mentioned below and with seeds of soybean plant and wheat as upland crop plants, and then covered with soil. The plants were made to grow up until they reached the 1 to 2 leaved stage, after which an agent comprising a prescribed concentration of a compound obtained in Reference Example 1 as active ingredient was sprayed.
(§2) Fourteen days after the treatment, the herbicidal effect was investigated, from which weed-killing rate was calculated in the same manner as in Reference Example 2 and the results were judged. At the same time, phytotoxicity on soybean plant and wheat was investigated and judged in the same manner as in Reference Example 2.

Arabidopsis thaliana [2] = experiment: Herbicidal effect on upland weeds after emergence; settings: after emergence (1 to 2 leaved stage) spray, 5 kg/ha, 14 days after treatment
Source text: as §1, §2

[3] = tested on: bent grass (Agrostis spp.); experiment: Herbicidal effect on upland weeds after emergence; settings: after emergence (1 to 2 leaved stage) spray, 5 kg/ha, 14 days after treatment
Source text: as §1, §2

[4] = tested on: bulrush (Scirpus juncoides Roxb.); experiment: Herbicidal effect on paddy field weeds pre-emergence; settings: paddy soil treatment pre-emergence, 5 kg/ha, 21 days after treatment
Method: (§3) Soil was filled into 1/10000 are pots and brought into a state of paddy field, in which seeds of barnyard grass (Echinochloa crus-galli Beauv.) and bulrush (Scirpus juncoides Roxb.) were made to be before germination. The soil in the pots were treated with a solution containing a predetermined dosage of a chemical agent comprising a compound obtained in Reference Example 1 as the active ingredient.
(§4) Twenty one days after the treatment, the herbicidal effect was investigated, the result was compared with that in untreated plot to calculate the weedkilling rate, and the herbicidal effect was judged according to the following criterion.

[5] = tested on: barnyard grass (Echinochloa crus-galli Beauv.); experiment: as above; settings: paddy soil treatment pre-emergence, 5 kg/ha, 21 days after treatment
Method: as §3, §4

soybean plant [6] = experiment: Phytotoxicity on upland crop plants, pre-emergence test; settings: upland pre-emergence spray, 5 kg/ha, 14 days after treatment
Source text: (§5) Polyethylene-made vats having a size of 10 cm (length)×20 cm (width)×5 cm (height) were filled with soil, sown with seeds of Arabidopsis thialiana, bent grass (Agrostis spp.) and monochoria (Monochoria veginalis), and with seeds of wheat and soybean plant as upland crop plants, and then covered with soil. Then, a liquid preparation of an agent comprising a prescribed concentration of a compound obtained in Reference Example 1 as active ingredient was sprayed.
(§6) Fourteen days after the treatment, the herbicidal effect was investigated, from which weed-killing rate was calculated in the same manner as in Reference Example 2, and the herbicidal effect was judged.
(§7) At the same time, phytotoxicity on soybean plant and wheat was investigated and judged according to the criterion mentioned in Reference Example 1.

wheat [7] = experiment: as above; settings: upland pre-emergence spray, 5 kg/ha, 14 days after treatment
Source text: as §5, §6, §7

paddy rice = experiment: Phytotoxicity on paddy rice (paddy field pre-emergence test); settings: 5 kg/ha, 21 days after treatment
Method: as §3, §4
At the same time, phytotoxicity on paddy rice was investigated, and judged according to the following criterion.

soybean plant [8] = experiment: Phytotoxicity on upland crop plants, after-emergence test; settings: after emergence spray, 5 kg/ha, 14 days after treatment
Source text: as §1, §2

wheat [9] = experiment: as above; settings: after emergence spray, 5 kg/ha, 14 days after treatment
Source text: as §1, §2

[10] = tested on: monochoria (Monochoria veginalis); experiment: Herbicidal effect on upland weeds pre-emergence; settings: upland pre-emergence spray, 5 kg/ha, 14 days after treatment
Source text: as §5, §6

Arabidopsis thaliana [11] = experiment: Herbicidal effect on upland weeds pre-emergence; settings: upland pre-emergence spray, 5 kg/ha, 14 days after treatment
Source text: as §5, §6

[12] = tested on: bent grass (Agrostis spp.); experiment: Herbicidal effect on upland weeds pre-emergence; settings: upland pre-emergence spray, 5 kg/ha, 14 days after treatment
Source text: as §5, §6

With CN(C)C(=O)Nc1ccc(C(F)(C(F)(F)F)C(F)(F)F)cc1 [Reference Example 1, 1,1-dimethyl-3-(4-heptafluoroisopropylphenyl)urea] the “herbicidal effect (rating)” value [1] was 3 (Weedkilling rate is 70–89%.), the “herbicidal effect (rating)” value (Arabidopsis thaliana [2]) was 5 (Weedkilling rate is 100%.) and the “herbicidal effect (rating)” value [3] was 3 (Weedkilling rate is 70–89%.). For the same compound, the “herbicidal effect (rating)” value [4] was 2 (Weedkilling rate is 40–69%.), the “herbicidal effect (rating)” value [5] was 4 (Weedkilling rate is 90–99%.) and the “phytotoxicity (rating)” value (soybean plant [6]) was 0 (Weedkilling rate is 0–20 (No phytotoxicity).). For the same compound, the “phytotoxicity (rating)” value (wheat [7]) was 0 (Weedkilling rate is 0–20 (No phytotoxicity).), the “phytotoxicity (rating)” value (paddy rice) was 0 (Weedkilling rate is 0–20 (No phytotoxicity).) and the “phytotoxicity (rating)” value (soybean plant [8]) was 0 (Weedkilling rate is 0–20 (No phytotoxicity).). For the same compound, the “phytotoxicity (rating)” value (wheat [9]) was 0 (Weedkilling rate is 0–20 (No phytotoxicity).), the “herbicidal effect (rating)” value [10] was 5 (Weedkilling rate is 100%.) and the “herbicidal effect (rating)” value (Arabidopsis thaliana [11]) was 5 (Weedkilling rate is 100%.). The “herbicidal effect (rating)” value [12] was 4 (Weedkilling rate is 90–99%.).
